# Measurements reported in publication PMC6100073, “Activation of Anthracene Endoperoxides in Leishmania and Impairment of Mitochondrial Functions” (Molecules : A Journal of Synthetic Chemistry and Natural …, 2018).
# Experiments:
# [1] = test system: LtP; assay: Uncoupling of LtP respiration in presence of oligomycin (OxoPlates); assay type: cell-based, Leishmania tarentolae; conditions: 38 µM Oligo; for uncoupling effect (recovery of O2 consumption in the presence of Oligo): 0.31–5.0 µM CCCP or 12.5–200.0 µM other compounds
# Description: The uncoupling experiments using OxoPlates were carried out in analogy to oxygen consumption measurements of LtP. An oligomycin (Oligo) premix in aBHI was prepared leading to a final concentration of 38 µM oligomycin (Oligo). Each well of the second row was filled with 50 µL of aBHI. From the third row on, each well was filled with 50 µL of the Oligo premix and to the fourth row additional 50 µL Oligo premix was added. The respective amounts of the substances (Ac, AQ, AcEP1117, AcEP1118, AcEP1129, AcEP1130, CCCP) were added and a serial 1:2 dilution was performed. Measurements were carried out as described above. The oxygen consumption rates were normalized to the wells that contained only LtP. For each concentration measurements were done in triplicates.
# [2] = Xylenol orange assay: reaction of endoperoxides with Fe2+; conditions: 50 µM compound, 250 µM FeSO4, 125 µM xylenol orange, methanol/H2O (9:1 v/v)
# Description: Xylenol orange (XO) (125 µM) and butylated hydroxytoluene (4 mM) were dissolved in methanol/H2O (9:1, v/v). FeSO4 (25 mM) in 2.5 M H2SO4 was prepared immediately before use and added, giving a final concentration of 250 µM FeSO4 in the samples. An aliquot of 100 µL EP solution (final concentration of 50 µM) was transferred into a disposable 1.5 mL cuvette (BRAND, Wertheim, Germany), and 1 mL of the color reagent was added. […] At these time points, the OD difference of the sample at 560 nm and 650 nm was determined using a MS1501 UV-vis diode array spectrophotometer (Shimadzu, Japan). As reference, a mixture of methanol/H2O (9:1, v/v) was used. […] The slope of the reaction rate was calculated using an extinction coefficient of the complex of 1.5 × 10^4 M^−1 cm^−1.
SMILES,uncoupling effect (recovery of O2 consumption in the presence of Oligo) [1],Slope (nM·min^−1) Mean ± SD of XO/Fe^3+ complex formation [2],concentration at which regain of oxygen consumption (uncoupling) is visible ([1]; declines at higher concentrations)
"c1ccc2c(c1)C1OOC2c2ccccc21 [AcEP1117, 9,10-dihydro-9,10-epidioxidoanthracene]",no strong uncoupling was observed except for AcEP1117 at 200 µM,77 ± 18 nM/min,
"CCc1ccc2c(c1)C1OOC2c2ccccc21 (stereo not drawn) [AcEP1130, 2-ethyl-9,10-dihydro-9,10-epidioxidoanthracene]",,146 ± 27 nM/min,
"O=C1c2ccccc2C(=O)c2ccccc21 [AQ, anthraquinone, reference compound]",Neither Ac nor AQ displayed an uncoupling effect,,
"c1ccc2cc3ccccc3cc2c1 [Ac, anthracene]",Neither Ac nor AQ displayed an uncoupling effect,,
"CC12OOC(c3ccccc31)c1ccccc12 [AcEP1129, 9-methyl-9,10-dihydro-9,10-epidioxidoanthracene]",a trend for uncoupling was observed at lower concentrations,"200,213 ± 60,600 nM·min^−1",25 µM
"CC12OOC(C)(c3ccccc31)c1ccccc12 [AcEP1118, 9,10-dimethyl-9,10-dihydro-9,10-epidioxidoanthracene]",,2940 ± 11 nM/min,
